Laboratory results taken from US11225481B2 (Centre national de la recherche scientifique, priority 2015, dated 2022).
Read-outs that look alike come from different tables or passages of the source.

How the values were obtained:
c-Myc = experiment: Western blot of c-Myc in Jurkat cells; format: cell-based, human; conditions: 24 h, same range of concentration as EC50
Description: Non-treated Jurkat cells and Jurkat cells treated during 24 h with compound of the invention 26b, or DMSO were lysed in RIPA lysis buffer (Tris HCl pH=7.5 50 mM, NaCl 150 mM, Triton 1%, SDS 0.1%, sodium deoxycholate 1%) supplemented with protease inhibitor cocktail (P8340, Sigma-Aldrich) and 1 mM PhenylMethylSulfonyl Fluoride (Sigma-Aldrich). 75 μg of protein were loaded onto 10% acrylamide SDS/PAGE and then transferred to nitrocellulose Hybond C-extra membranes, […] (GE Healthcare). The membranes were saturated with 5% (wt/vol) skim milk in TBST [Tris-buffered saline/0.1% (vol/vol) Tween 20] 1 h at room temperature and incubated with anti-myc antibody (clone 9E10, sc40 Santa Cruz) at a 1:500 dilution in 0.5% (wt/vol) skimmed milk in TBST overnight at 4° C. Membranes were then washed with TBST, incubated with an HRP-conjugated anti-mouse secondary antibody (polyclonal goat anti mouse P0447, Pierce) at a 1:20,000 dilution in TBST 1 h at room temperature. […] Quantification was performed using ImageJ software.

BRDT(BD1) = target: T1, BRDT(BD1) (Homo sapiens, UniProt Q58F21); experiment: HTRF bromodomain selectivity profile; format: binding; conditions: Table 3 selectivity profile
T1 construct: purchased BPS Bioscience
Description: (§1) HTRF assays were performed in white 384 Well Small Volume™ HiBase Polystyrene Microplates (Greiner) with a total working volume of 20 μL. Compounds were dispensed, with 200 nL per well (1% final DMSO), from a concentration stock of 1 mM in 100% DMSO and with serial DMSO dilutions, using a Mosquito Crystal pipetting robot platform (TTP labtech). The IC50 measurements were performed in triplicates (Table 2 and 3). All HTRF reagents were purchased from CisBio Bioassays and reconstituted according to the supplier protocols. For each assay 14.7 μL of mix 1 (protein+peptide) is added in the assay wells, containing previously dispensed inhibitors, according to the final concentration and buffer described in Table 4, using a Biomek NX MC pipetting robot (Beckman). Then, 5.1 μL of mix 2 (donnor+acceptor) is added. HTRF signals were measured, after a final incubation (overnight at room temperature), using a PHERAstar FS (BMG Labtech) with an excitation filter at 337 nm and fluorescence wavelength measurement at 620 and 665 nm, an integration delay of 60 μs and an integration time of 500 μs. Results were analyzed with a two-wavelengths signal ratio: [intensity (665 nm)/intensity (620 nm)]*10^4. Percentage of inhibition was calculated using the following equation: % inhibition=[(compound signal)−(min signal)]/[(max signal)−(min signal)]*100, where ‘max signal’ is the signal ratio with the compound vehicle alone (DMSO) and ‘min signal’ the signal ratio without peptide.
(§2) Selectivity profiles of bromodomain inhibitors were performed as described in HTRF screen section. […] HTRF detection reagents (EPIgeneous™ Binding Domain kits) were purchased from Cisbio Bioassays and used according to supplier's protocol. GST tagged bromodomain proteins were purchased from BPS Bioscience and histone peptide from Anaspec.

BRD2(BD1) = target: T2, BRD2(BD1) (Homo sapiens, UniProt P25440); experiment: HTRF bromodomain selectivity profile; format: binding; conditions: Table 3 selectivity profile
T2 construct: purchased BPS Bioscience
Description: as §1, §2

BRD4(BD2) = target: T3, BRD4(BD2) (Homo sapiens, UniProt O60885); experiment: HTRF bromodomain selectivity profile; format: binding; conditions: Table 3 selectivity profile
T3 construct: purchased BPS Bioscience
Description: as §1, §2

BRD2(BD2) = target: T4, BRD2(BD2) (Homo sapiens, UniProt P25440); experiment: HTRF bromodomain selectivity profile; format: binding; conditions: Table 3 selectivity profile
T4 construct: purchased BPS Bioscience
Description: as §1, §2

BRD4(BD1) = target: T5, BRD4(BD1) (Homo sapiens, UniProt O60885); experiment: HTRF assay, disruption of bromodomain/histone peptide interaction; format: binding
T5 construct: a BRD4(BD1) synthetic gene that includes a TEV cleavage site was purchased from LifeTechnology; made in house
Outline: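 Percent inhibition was referenced to DMSO-only wells as maximum and peptide-free wells as minimum, with IC50 measured in triplicate. Signal was the 665/620 nm HTRF ratio after 337 nm excitation. Compound at 1% final DMSO was incubated overnight at room temperature with the GST-BRD4(BD1)/peptide mix plus donor and acceptor reagents.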

T4 sequence (P25440 344-453 limits assumed): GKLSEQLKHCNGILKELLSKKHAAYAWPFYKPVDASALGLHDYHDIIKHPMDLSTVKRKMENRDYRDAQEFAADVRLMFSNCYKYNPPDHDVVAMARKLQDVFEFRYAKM
T2 sequence (P25440 74-180 limits assumed): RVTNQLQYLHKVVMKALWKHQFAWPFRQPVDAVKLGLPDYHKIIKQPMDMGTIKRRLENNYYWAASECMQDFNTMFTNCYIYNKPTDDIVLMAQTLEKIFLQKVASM

- IC50 (BRDT(BD1)): > 100 µM
- IC50 (BRD2(BD1)): 59 ± 2.9 µM
- IC50 (BRD4(BD2)): > 100 µM
- IC50 (μM) BRD4(BD2) (BRD4(BD2)): no detectable inhibition
- IC50 (BRD2(BD2)): > 100 µM
- IC50 (μM) BRD2(BD2) (BRD2(BD2)): no detectable inhibition
- IC50 (BRD4(BD1); HTRF, Table 1′, TABLE 2, read-out: BRD4(BD1) IC50): 5 µM
- IC50 (BRD4(BD1); HTRF, mean ± SD of three experiments, Table 2, read-out: IC50 μM, effect on BRD4(BD1) activity): 5 µM
- LE (Ligand Efficiency) (BRD4(BD1); LE = 1.4(−log(IC50)/N), BRD4(BD1)): 0.22
- IC50 (BRD4(BD1); Table 3 selectivity profile, mean ± SD of three experiments, read-out: IC50 (μM) BRD4(BD1)): 5 ± 0.1 µM
Compound: CCCCc1c(C)nc2nc(SCc3nc4c(c(=O)[nH]c(=O)n4CCCC)n3CC)nn2c1C [Compound 26b, 3-Butyl-8-(6-butyl-5,7-dimethyl-[1,2,4]triazolo[1,5-a]pyrimidin-2-ylsulfanylmethyl)-7-ethyl-3,7-dihydro-purine-2,6-dione]
- c-Myc down regulation (c-Myc): down regulated c-Myc
